Experiments:
Dog intraocular pressure = test: Intraocular pressure in dogs by applanation pneumatonometry; type: in vivo; settings: 25 μl to the ocular surface, contralateral eye vehicle, IOP before drug administration and at 6 hours thereafter
Procedure: The effects of the compounds of this invention on intraocular pressure are also measured. The compounds are prepared at the said concentrations in a vehicle comprising 0.1% polysorbate 80 and 10 mM TRIS base. Dogs are treated by administering 25 μl to the ocular surface, the contralateral eye received vehicle as a control. Intraocular pressure is measured by applanation pneumatonometry. Dog intraocular pressure is measured immediately before drug administration and at 6 hours thereafter.

intraocular pressure = test: Intraocular pressure in glaucomatous cynomolgus monkeys; type: in vivo; settings: glaucomatous cynomonlgus monkeys

Row | Compound | ocular hypotensive effect (Dog intraocular pressure) | ocular hypotensive effect (intraocular pressure)
1 | C=CCOC(=O)CCC/C=C\C[C@H]1C(=O)C[C@@H](O)[C@@H]1/C=C/[C@@H](O)CCc1sc2ccccc2c1Cl [6(a), (Z)-7-{(1R,2R,3R,5S)-2-[(E)-(S)-5-(3-Chlorobenzo[b]thiophen-2-yl)-3-hydroxypent-1-enyl]-3-hydroxy-5-oxocyclopentyl}hept-5-enoic acid allyl ester] | pronounced ocular hypotensive effect | –
2 | O=C(O)CCC/C=C\C[C@H]1C(=O)C[C@@H](O)[C@@H]1/C=C/[C@@H](O)CCc1sc2ccccc2c1Cl [7(a), (Z)-7-{(1R,2R,3R,5S)-2-[(E)-(S)-5-(3-Chlorobenzo[b]thiophen-2-yl)-3-hydroxypent-1-enyl]-3-hydroxy-5-oxocyclopentyl}hept-5-enoic acid] | – | pronounced ocular hypotensive effect

Source: patent US6670485B2, “Prostanoic acid derivatives as agents for lowering intraocular pressure” (Allergan, Inc., priority 2001, dated 2003)
